Laboratory results as given in patent US20120230951A1 (priority 2011, published 2012).
Counter-ions that a name gives are not always drawn.

These molecules were tested on GT-1a pRLuc H771b 75 S/I subgenomic replicon cell line (assay: HCV GT-1a replicon luciferase reporter assay). Details: Hepatitis C virus, GT1A, 72 h, read-out: GT-1a (IC50) (nM).
Type: cell-based
Text: Determination of compounds HCV GT1b inhibitory replicon activity using the replicon luciferase reporter assay
The 2209-23 cell line was developed at Roche by stable transfection of the hepatoma cell line Huh-7 with a GT-1b Con1 subgenomic bicistronic replicon as previously described. Subgenomic replicon cell line was established in cured Huh7 cells, obtained from R. Bartenschlager (J. Virol. 2003 March; 77 (5):3007-19) The GT-1a H77 subgenomic replicon vector pRLuc H771b 75 S/I, was created by replacing the non structural region of the GT-1b Con1 subgenomic replicon by the one of the H77 strain, except for the first 75 amino acids of the NS3 protein that are from GT-1b Con1 strain. (J. Virol. 2001 77:5352-59) The GT-1a pRLuc H771b 75 S/I subgenomic replicon cell line was established in cured Huh7 cells, obtained from R. Bartenschlager. (J. Virol. 2003 March; 77 (5):3007-19)
All the subgenomic replicon cell lines were cultured in Dulbecco's Modified Eagle Medium (DMEM-Glutamax™-I; Invitrogen Cat #10569-010). The medium was supplemented with 10% Fetal Bovine Serum (Invitrogen Cat #10082-147), 1% penicillin/streptomycin (Mediatech Cat #30-002-CI) and 500 μg/ml of G418 (Mediatech Cat #30-234-CI). Cells were maintained at 37° C. in a humidified 5% CO2 atmosphere.
2209-23 cells were plated at a cell density of 5000 cells per well in 96 well plates (Becton Dickinson, Cat #35 3296). Cells were plated in 90 μl of Dulbecco's Modified Eagle Medium (DMEM-Glutamax™-I), (Invitrogen Cat #10569-010) medium was supplemented with 5% Fetal Bovine Serum (Invitrogen Cat #10082-147), 1% penicillin/streptomycin (Mediatech Cat #30-002-CI). The pRluc H771b 75 S/I cells were plated in 96-well plate at 3000 cells/well in DMEM-Glutamax™-I containing 5% FBS and 1% penicillin/streptomycin in 90 μl final volume. Cells were allowed to equilibrate for 24 hours at 37° C. and 5% CO2 at which time compounds were added. Compounds (or medium as a control) were added 24 hours post-plating in 3 fold dilutions at a final DMSO concentration of 1% in 10 ul volume. Renilla luciferase reporter signal was read 72 hours after addition of compounds using the Renilla Luciferase Assay System (Promega, cat #E2820). EC50 values were defined as the compound concentration at which a 50% reduction in the levels of renilla luciferase reporter was observed as compared to control samples in the absence of compound and was determined by non-linear fitting of compound dose-response data. The EC50 was approximated if maximum percentage inhibition was less than 90% and more than 70%.
Work on `COC(=O)N[C@H]1CCc2cccc3c2N(C1=O)[C@H](c1ncc(-c2ccc4cc(-c5ccc(-c6cnc([C@@H]7CCCN7C(=O)[C@@H](NC(=O)OC)C(C)C)[nH]6)cn5)ccc4c2)[nH]1)C3` [Compound I-24, ((2S,5S)-2-{4-[6-(5-{2-[(S)-1-((S)-2-Methoxycarbonylamino-3-methyl-butyryl)-pyrrolidin-2-yl]-3H-imidazol-4-yl}-pyridin-2-yl)-naphthalen-2-yl]-1H-imidazol-2-yl}-4-oxo-1,2,4,5,6,7-hexahydro-azepino[3,2,1-hi]indol-5-yl)-carbamic acid methyl ester di-trifluoroacetic acid salt] yielded an IC50 of 1.16 nM.
Work on `COC(=O)N[C@H]1CCc2cc(C(N)=O)cc3c2N(C1=O)[C@H](c1ncc(-c2ccc(-c4ccc(-c5cnc([C@H]6CCCN6C(=O)[C@H](NC(=O)OC)C(C)C)[nH]5)cc4)cc2)[nH]1)C3` [Compound I-27, {(2S,5S)-9-Carbamoyl-2-[5-(4′-{2-[(R)-1-((R)-2-methoxycarbonylamino-3-methyl-butyryl)-pyrrolidin-2-yl]-3H-imidazol-4-yl}-biphenyl-4-yl)-1H-imidazol-2-yl]-4-oxo-1,2,4,5,6,7-hexahydro-azepino[3,2,1-hi]indol-5-yl}-carbamic acid methyl ester] yielded an IC50 of 5.08 nM.
`COC(=O)N[C@H]1CCc2cccc3c2N(C1=O)[C@H](c1ncc(-c2ccc(-c4ccc(-c5[nH]c([C@@H]6CCCN6C(=O)[C@@H](NC(=O)OC)C(C)C)nc5Cl)cc4)cc2)[nH]1)C3` [Compound I-30, {(2S,5S)-2-[5-(4′-{5-Chloro-2-[(S)-1-((S)-2-methoxycarbonylamino-3-methyl-butyryl)-pyrrolidin-2-yl]-3H-imidazol-4yl}-biphenyl-4-yl)-1H-imidazol-2-yl]-4-oxo-1,2,4,5,6,7-hexahydro-azepino[3,2,1-hi]indol-5-yl}-carbamic acid methyl ester] was tested, and the IC50 was 1 nM.
For `COC(=O)N[C@H]1CCc2cccc3c2N(C1=O)[C@H](c1ncc(-c2ccc(-c4ccc(-c5[nH]c([C@@H]6CC(F)(F)CN6C(=O)[C@@H](NC(=O)OC)C(C)C)nc5Cl)cc4)cc2)[nH]1)C3` [Compound I-32, {(2S,5S)-2-[5-(4′-{5-Chloro-2-[(S)-4,4-difluoro-1-((S)-2-methoxycarbonylamino-3-methyl-butyryl)-pyrrolidin-2-yl]-3H-imidazol-4yl}-biphenyl-4-yl)-1H-imidazol-2-yl]-4-oxo-1,2,4,5,6,7-hexahydro-azepino[3,2,1-hi]indol-5-yl}-carbamic acid methyl ester], the IC50 was 5.78 nM.
Molecule `COC(=O)N[C@H]1CCc2cccc3c2N(C1=O)[C@H](c1ncc(-c2ccc(-c4ccc(-c5cnc([C@@H]6C[C@H](O)CN6C(=O)[C@@H](NC(=O)OC)C(C)C)[nH]5)cc4)cc2)[nH]1)C3` [Compound I-33, {(2S,5S)-2-[5-(4′-{2-[(2S,4S)-4-Hydroxy-1-((S)-2-methoxycarbonylamino-3-methyl-butyryl)-pyrrolidin-2-yl]-3H-imidazol-4-yl}-biphenyl-4-yl)-1H-imidazol-2-yl]-4-oxo-1,2,4,5,6,7-hexahydro-azepino[3,2,1-hi]indol-5-yl}-carbamic acid methyl ester] has an IC50 of 46.1 nM.
In the case of `COC(=O)N[C@H]1CCc2cccc3c2N(C1=O)[C@H](c1ncc(-c2ccc(-c4ccc(-c5cnc([C@@H]6CCCN6C(=O)[C@@H](NC(=O)OC)C(C)C)[nH]5)cn4)cc2)[nH]1)C3` [Compound I-34, ((2S,5S)-2-{5-[4-(5-{2-[(S)-1-((S)-2-Methoxycarbonylamino-3-methyl-butyryl)-pyrrolidin-2-yl]-3H-imidazol-4-yl}-pyridin-2-yl)-phenyl]-1H-imidazol-2-yl}-4-oxo-1,2,4,5,6,7-hexahydro-azepino[3,2,1-hi]indol-5-yl)-carbamic acid methyl ester], the IC50 is reported as 86.7 nM.
`COC(=O)N[C@H]1CCc2cccc3c2N(C1=O)[C@H](c1ncc(-c2ccc(-c4ccc(-c5cnc([C@@H]6CCCN6C(=O)[C@@H](NC(=O)OC)C(C)C)[nH]5)cc4)cc2F)[nH]1)C3` [Compound I-36, {(2S,5S)-2-[5-(3-Fluoro-4′-{2-[(S)-1-((S)-2-methoxycarbonylamino-3-methyl-butyryl)-pyrrolidin-2-yl]-1H-imidazol-4-yl}-biphenyl-4-yl)-1H-imidazol-2-yl]-4-oxo-1,2,4,5,6,7-hexahydro-azepino[3,2,1-hi]indol-5-yl}-carbamic acid methyl ester] showed an IC50 of 13.8 nM.
Molecule `COC(=O)N[C@H]1CCc2cccc3c2N(C1=O)[C@H](c1ncc(-c2ccc(-c4ccc(-c5cnc([C@@H]6CCCN6C(=O)[C@@H](NC(=O)OC)C(C)C)[nH]5)cc4F)cc2)[nH]1)C3` [Compound I-37, {(2S,5S)-2-[5-(2′-Fluoro-4′-{2-[(S)-1-((S)-2-methoxycarbonylamino-3-methyl-butyryl)-pyrrolidin-2-yl]-1H-imidazol-4-yl}-biphenyl-4-yl)-1H-imidazol-2-yl]-4-oxo-1,2,4,5,6,7-hexahydro-azepino[3,2,1-hi]indol-5-yl}-carbamic acid methyl ester] has an IC50 of 5.22 nM.
Molecule `COC(=O)N[C@H]1CCc2cccc3c2N(C1=O)[C@H](c1ncc(-c2ccc(-c4ccc(-c5cnc([C@@H]6CCCN6C(=O)[C@@H](NC(=O)OC)C(C)C)[nH]5)cc4C#N)cc2)[nH]1)C3` [Compound I-38, {(2S,5S)-2-[5-(2′-Cyano-4′-{2-[(S)-1-((S)-2-methoxycarbonylamino-3-methyl-butyryl)-pyrrolidin-2-yl]-1H-imidazol-4-yl}-biphenyl-4-yl)-1H-imidazol-2-yl]-4-oxo-1,2,4,5,6,7-hexahydro-azepino[3,2,1-hi]indol-5-yl}-carbamic acid methyl ester] has an IC50 of 22.4 nM.
With `COC(=O)N[C@H]1CCc2cccc3c2N(C1=O)[C@H](c1ncc(-c2ccc(-c4ccc(-c5cnc([C@@H]6C[C@@H](C#N)CN6C(=O)[C@@H](NC(=O)OC)C(C)C)[nH]5)cc4)cc2)[nH]1)C3` [Compound I-39, {(2S,5S)-2-[5-(4′-{2-[(2S,4R)-4-Cyano-1-((S)-2-methoxycarbonylamino-3-methyl-butyryl)-pyrrolidin-2-yl]-3H-imidazol-4-yl}-biphenyl-4-yl)-1H-imidazol-2-yl]-4-oxo-1,2,4,5,6,7-hexahydro-azepino[3,2,1-hi]indol-5-yl}-carbamic acid methyl ester] the IC50 was 5.34 nM.
For `COC(=O)N[C@H]1CCc2cccc3c2N(C1=O)[C@H](c1ncc(-c2ccc(-c4ccc(-c5cnc([C@@H]6C[C@H](C#N)CN6C(=O)[C@@H](NC(=O)OC)C(C)C)[nH]5)cc4)cc2)[nH]1)C3` [Compound I-40, {(2S,5S)-2-[5-(4′-{2-[(2S,4S)-4-Cyano-1-((S)-2-methoxycarbonylamino-3-methyl-butyryl)-pyrrolidin-2-yl]-3H-imidazol-4-yl}-biphenyl-4-yl)-1H-imidazol-2-yl]-4-oxo-1,2,4,5,6,7-hexahydro-azepino[3,2,1-hi]indol-5-yl}-carbamic acid methyl ester], the IC50 was 7.85 nM.
`COC(=O)N[C@H]1CCc2cccc3c2N(C1=O)[C@H](c1ncc(-c2ccc(-c4ccc5cc(-c6cnc([C@@H]7C[C@H](C#N)CN7C(=O)[C@@H](NC(=O)OC)C(C)C)[nH]6)ccc5c4)cc2)[nH]1)C3` [Compound I-41, {(2S,5S)-2-{5-[4-(6-{2-[(2S,4S)-4-Cyano-1-((S)-2-methoxycarbonylamino-3-methyl-butyryl)-pyrrolidin-2-yl]-3H-imidazol-4-yl}-naphthalen-2-yl)-phenyl]-1H-imidazol-2-yl]-4-oxo-1,2,4,5,6,7-hexahydro-azepino[3,2,1-hi]indol-5-yl}-carbamic acid methyl ester] gave an IC50 of 2.49 nM.
For `COC(=O)N[C@H]1CCc2cccc3c2N(C1=O)[C@H](c1ncc(-c2ccc(-c4ccc5cc(-c6cnc([C@@H]7CC(F)(F)CN7C(=O)[C@@H](NC(=O)OC)C(C)C)[nH]6)ccc5c4)cc2)[nH]1)C3` [Compound I-42, {(2S,5S)-2-{5-[4-(6-{2-[(S)-4,4-Difluoro-1-((S)-2-methoxycarbonylamino-3-methyl-butyryl)-pyrrolidin-2-yl]-3H-imidazol-4-yl}-naphthalen-2-yl)-phenyl]-1H-imidazol-2-yl}-4-oxo-1,2,4,5,6,7-hexahydo-azepino[3,2,1-hi]indol-5-yl}-carbamic acid methyl ester], the IC50 was 1.17 nM.
`COC[C@H](NC(=O)OC)C(=O)N1CCC[C@H]1c1ncc(-c2ccc(-c3ccc(-c4cnc([C@@H]5Cc6cccc7c6N5C(=O)[C@@H](NC(=O)OC)CC7)[nH]4)cc3)cc2)[nH]1` [Compound I-43] gave an IC50 of 5.64 nM.
